From US11629201B2, “PSMA-binding agents and uses thereof” (ITM Isotope Technologies Munich SE, priority 2017, dated 2023)
Several values for one entry are separate records, joined by “and”; a condition that tells them apart may be missing. Equal entries are not always repeated.

Experiments:
mouse plasma proteins = assay: Ultrafiltration assay, binding to mouse plasma proteins; assay type: in vitro ADME
Procedure: Filter Assay. […] In addition, the radioligands were diluted in PBS (buffer solution without proteins) as a control experiment. Aliquots of the solutions were loaded onto an ultrafiltration device and centrifuged. The filtered activity was measured with a γ-counter and used for calculating the plasma protein-bound activity (retained on the filter membrane) as the percentage of total added activity. […] Statistical analysis (one-way ANOVA with Bonferroni's multiple comparison post-test) was performed using GraphPad Prism software, version 7. A p-value of <0.05 was considered statistically significant.

[1] = Stability of radioligands over time by RP-HPLC; assay type: physicochemical
Procedure: Quality control of ^64Cu-labeled PSMA ligands (250 MBq in 120 μL; 50 MBq/nmol) was determined immediately after preparation (t=0 h) using RP-HPLC. The reaction mixtures were diluted in saline to an activity concentration of 250 MBq/500 μL and incubated at room temperature. The integrity of the compounds was investigated over one day (t=1 h, 4 h and 24 h, respectively). The amount of intact radioligand was quantified by integration of the product peak of the HPLC chromatograms in relation to the sum of all radioactive peaks of degradation products of unknown structure and traces of released ^64Cu which were set to 100%.
The stability of the radioligands was determined over time using RP-HPLC. […] The radiolabeling efficiency of the ligands was determined immediately after preparation (t=0 h) and the integrity of the compounds was investigated after incubation for various periods (t=1 h, 4 h and 24 h, respectively) at room temperature. The amount of intact compound was quantified by integration of the product peak of the HPLC chromatograms in relation to the sum of all radioactive peaks of degradation products of unknown structure and traces of free ^177Lu, which were set to 100%.

PC-3 PIP tumor = assay: Therapy study in PC-3 PIP tumor-bearing mice; assay type: in vivo; details: for TGDI2 / TGDI5: control = 1
Source text: Mice of Groups B and D received 2 MBq of the radioligand (1 nmol/mouse), whereas mice of Groups C and E received 5 MBq of the radioligand (1 nmol/mouse). The mice were monitored by measuring body weights and the tumor size every other day over 12 weeks. Mice were euthanized when pre-defined endpoint criteria were reached, or when the study was terminated at Day 84. The relative body weight (RBW) was defined as [BWx/BW0], where BWx is the body weight in gram at a given day x and BW0 the body weight in gram at day 0. The tumor dimension was determined by measuring the longest tumor axis (L) and its perpendicular axis (W) with a digital caliper. The tumor volume (V) was calculated according to the equation [V=0.5*(L*W2)]. The relative tumor volume (RTV) was defined as [TVx/TV0], where TVx is the tumor volume in mm3 at a given day x and TV0 the tumor volume in mm3 at Day 0.
The efficacy of the radionuclide therapy was expressed as the tumor growth delay (TGDx), which was calculated as the time required for the tumor volume to increase x-fold over the initial volume at the Day 0. The tumor growth delay index [TGDIx=TGDx(T)/TGDx(C)] was calculated as the TGDx ratio of treated mice (T) over control mice (C) for a 2-fold (x=2, TGD2) and 5-fold (x=5, TGD5) increase of the initial tumor volume. As a measure to identify undesired side effects, body weights were compared at the day when the first control mouse had to be euthanized. After euthanasia, kidneys, liver and the brain were collected and weighed. The organ ratios (kidney-to-brain and liver-to-brain) were calculated using the organ masses obtained at the day of euthanasia.
The data was analyzed for significance as indicated in the result part using a one-way ANOVA with Tukey's multiple comparison post-test using GraphPad Prism software (version 7). A value of p<0.05 was considered statistically significant. Survival analysis was performed with Kaplan-Meier curves and a log-rank tests (Mantel Cox).

[2] = n-Octanol/PBS distribution coefficient (log D); assay type: physicochemical; details: radiolabeled ligand, 50 MBq/nmol, PBS pH 7.4
Procedure: The radioligand (0.5 MBq; 10 pmol, 25 μL) was then added to a reagent tube containing 1475 μL of PBS pH 7.4 and 1500 μL of n-octanol. The vials were vortexed vigorously followed by a centrifugation step for phase separation.
Determination of n-Octanol/PBS Distribution Coefficients (Log D Values). The distribution coefficients (log D values) of the ^64Cu-labeled radioligands (50 MBq/nmol) were determined by a shake-flask method using liquid-liquid extraction followed by phase separation as previously reported. Three experiments were performed with five replicates for each radioligand. Statistical significance of the data (p<0.05) was evaluated using an unpaired t-test (GraphPad Prism software, version 7).
Determination of n-Octanol/PBS Distribution Coefficients (Log D Values). […] A sample of the radioligands was mixed with phosphate-buffered saline (PBS) and n-octanol followed by vigorous vortexing. […] Three experiments were performed with five replicates for each compound.

[3] = test system: PSMA-negative PC-3 flu cells; assay: Cell uptake in PSMA-negative PC-3 flu cells; assay type: cell-based
Procedure: Cells were grown in RPMI cell culture medium supplemented with 10% fetal calf serum, L-glutamine, antibiotics and puromycin (2 μg/mL) at 37° C. and 5% CO2 (standard conditions). Routine cell culture was performed twice a week using PBS/EDTA (2 mM) for washing the cells and trypsin for detachment of the cells. The cells were seeded in 12-well plates (˜3×10^5 cells in 2 mL RPMI medium/well) allowing adhesion and growth overnight at standard conditions. The supernatant was removed and the cells washed with PBS pH 7.4 prior to the addition of RPMI medium without supplements (975 μL/well). […] After incubation, the cells were washed three times with ice-cold PBS and the total uptake of the radioligands was determined (PSMA-bound fraction on the surface and internalized fraction). The fraction of internalized radioligand was evaluated in cells washed with ice-cold PBS, followed by a 10 min incubation with stripping buffer (0.05 M glycine stripping buffer in 100 mM NaCl, pH 2.8) and an additional washing step with ice-cold PBS. […] After homogenization of the cell suspensions, the protein concentration was determined for each sample using a Micro BCA Protein Assay kit (Pierce, Therma Scientific). The results were expressed as percentage of total added radioactivity per […]. […]

[4] = test system: PC-3 PIP/flu tumor-bearing mice; assay: Biodistribution studies in PC-3 PIP/flu tumor-bearing mice; details: for Tumor-to-blood / Tumor-to-kidney / Tumor-to-liver: PC-3 PIP tumor
[5] = test system: PSMA-positive PC-3 PIP cells; assay: Cell uptake and internalization in PSMA-positive PC-3 PIP cells; assay type: cell-based; details: 4 h incubation, PC-3 PIP cells
[6] = non-decay-corrected biodistribution data up to 192 h p.i.

O=C([O-])CN1CCN(CC(=O)[O-])CCN(CC(=O)NCC2CCC(C(=O)N[C@@H](Cc3ccc4ccccc4c3)C(=O)NCCCC[C@H](NC(=O)N[C@@H](CCC(=O)O)C(=O)O)C(=O)O)CC2)CCN(CC(=O)[O-])CC1.[177Lu+3] (some centres unmarked) [^177Lu-PSMA-617, reference compound]
plasma protein-bound fraction (mouse plasma proteins): 9.3±1.1%
intact compound ([1]; after 4 h, absence of L-ascorbic acid): ~86%
intact compound ([1]; after 24 h, absence of L-ascorbic acid): < 2%
intact compound ([1]; after 24 h, with L-ascorbic acid): > 98%
first mouse of group euthanized (PC-3 PIP tumor; 2 MBq/mouse (Groups B, D)): 12 days
median survival (PC-3 PIP tumor; 2 MBq/mouse (Groups B, D)): 19 days
TGDI2 (PC-3 PIP tumor; 2 MBq/mouse (Groups B, D)): 0.8 and 0.8 ± 0.3
TGDI5 (PC-3 PIP tumor; 2 MBq/mouse (Groups B, D)): 1.4 and 1.4 ± 0.1
first mouse of group euthanized (PC-3 PIP tumor; 5 MBq/mouse (Groups C, E)): 26 days
median survival (PC-3 PIP tumor; 5 MBq/mouse (Groups C, E)): 32 days
TGDI2 (PC-3 PIP tumor; 5 MBq/mouse (Groups C, E)): 2.1 ± 0.3
TGDI5 (PC-3 PIP tumor; 5 MBq/mouse (Groups C, E)): 2.5 ± 0.3
n-octanol/PBS distribution coefficient (log D value) [2]: −4.4±0.15
uptake in PC-3 flu cells [3]: below 0.5%
PC-3 PIP Tumor ([4]; 4 h p.i.): ~56 % IA/g
Kidneys ([4]; 24 h p.i.): < 1 % IA/g
Tumor-to-blood ([4]; 24 h p.i.): 2730 ± 195
Tumor-to-kidney ([4]; 24 h p.i.): 49 ± 3.7
Tumor-to-liver ([4]; 24 h p.i.): 528 ± 51
Tumor-to-blood ([4]; 48 h p.i.): 3776 ± 585
Tumor-to-kidney ([4]; 48 h p.i.): 81 ± 11
Tumor-to-liver ([4]; 48 h p.i.): 710 ± 97
PC-3 PIP Tumor ([4]; 192 h p.i.): ~20 % IA/g
AUC PC-3 PIP tumor [4, 6]: 3691 ± 156 % IA/g · h
AUC blood [4, 6]: 52 ± 1.5 % IA/g · h
AUC kidneys [4, 6]: 99 ± 11 % IA/g · h
AUC liver [4, 6]: 6.2 ± 1.6 % IA/g · h
Ratio of AUCs AUCTu-to-AUCBl ([4]; tumor to blood): 71
Ratio of AUCs AUC-Tu-to-AUC-Ki ([4]; tumor to kidneys): 37
Ratio of AUCs AUCTu-to-AUCLi ([4]; tumor to liver): 592
cell uptake [5]: 58%
internalized fraction [5]: 12%
